The data set can be described thus: Reaction product analysis (preparative isolation and HPLC). The format is physicochemical. The note with it: preparative scale reaction, not further hydrolyzed to N-benzoyl-L-cysteine. On the procedure: Compound 604a (0.39 mmol, 1.0 equivalents) was dissolved in 15 mL of 2:1 THF/PBS (10 mM, pH 7.4). L-cysteine methyl ester hydrochloride (1.17 mmol, 3.0 equivalents) was added in a single portion and stirred at room temperature for 2 hours. The reaction mixture was diluted with deionized H2O (˜20 mL) and extracted with CH2Cl2 (3×20 mL). The combined organic extracts were washed with brine and dried over MgSO4. After filtration, the solvent was removed under reduced pressure, and the purified by preparative thin layer chromatography (1:1 CH2Cl2 in hexanes). Compound 604a Rf=0.75 (63.6 mg, 76%) and CysDHT Rf=0.03 (11.0 mg, 13%) were isolated and characterized by ^1H and ^13C{^1H} NMR spectroscopy. The significant recovery of compound 604a is likely due to the lack of buffering capacity in the preparative-scale reaction.
To a 20 mL solution of 10% THF in PBS (10 mM, pH 7.4) containing 2 mM L-cysteine methyl ester (20 equivalents), 20 μL of 100 mM compound 604a in THF was added and stirred at room temperature. After 1 hour, a 1 mL reaction aliquot was analyzed by HPLC. HPLC analysis was performed on an Agilent 1260 HPLC instrument with a Poroshell 120 EC-C18 4.6×100 mm column and monitored at 280 nm. […] The concentration of CysDHT and phenol present at the end of the reaction were determined by measurement against calibration curves for each compound (see FIG. 4). […]

These results are taken from patent US11078157B1, “Compound embodiments that release H2S by reaction with a reactive compound and methods of making and using the same” (University of Oregon, priority 2018, dated 2021).

`COC(=O)C1CSC(c2ccccc2)=N1` (stereo not shown) [CysDHT, Methyl 2-phenyl-4,5-dihydrothiazole-4-carboxylate]: the “stability of dihydrothiazole under aqueous conditions” value was “stable under aqueous conditions”.
